Several values for one entry are separate records, joined by “and”; a condition that tells them apart may be missing. Identical values can stand only once.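 Assay format: 96-well plates, 48-hour exposure. GI50 marks 50% less growth. TGI: total growth inhibition.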
Assays:
Assay in all cases: NCI anticancer screen, dose series, 48 h
CAKI-1 renal = test system: CAKI-1 renal
HCC-2998 colon = test system: HCC-2998 colon
HL-60(TB) leukemia = test system: HL-60(TB) leukemia
HOP-92 NSCLC = test system: HOP-92 NSCLC
HS 578T breast = test system: HS 578T breast
OVCAR-3 ovarian = test system: OVCAR-3 ovarian
OVCAR-8 ovarian = test system: OVCAR-8 ovarian
PC-3 prostate = test system: PC-3 prostate
SF-539 CNS = test system: SF-539 CNS
SK-MEL-28 melanoma = test system: SK-MEL-28 melanoma

SMILES	GI50 (CAKI-1 renal)	TGI (CAKI-1 renal)	GI50 (HCC-2998 colon)	TGI (HCC-2998 colon)	GI50 (HL-60(TB) leukemia)	TGI (HL-60(TB) leukemia) [nM]	GI50 (HOP-92 NSCLC)	TGI (HOP-92 NSCLC)	GI50 (HS 578T breast)	TGI (HS 578T breast)	GI50 (OVCAR-3 ovarian)	TGI (OVCAR-3 ovarian)	GI50 (OVCAR-8 ovarian)	TGI (OVCAR-8 ovarian) [µM]	GI50 (PC-3 prostate)	TGI (PC-3 prostate)	GI50 (SF-539 CNS)	TGI (SF-539 CNS)	GI50 (SK-MEL-28 melanoma)	TGI (SK-MEL-28 melanoma)
CNC(=O)CN1CCC(Oc2cc3c(Nc4cccc(Cl)c4F)ncnc3cc2OC)CC1	216 nM and 1110 nM	10.4 µM and > 10 µM	15900 nM and > 7700 nM	34.6 µM and > 10 µM	26900 nM and > 4950 nM	> 65400	1900 nM and 1290 nM	16.4 µM and > 9.33 µM	3350 nM and 2960 nM	21.2 µM and > 10 µM	3830 nM and 2340 nM	18.8 µM and > 10 µM	8250 nM and > 5040 nM	> 77.3	17500 nM and > 8300 nM	> 69.1 µM	13500 nM and > 5940 nM	33.4 µM and > 10 µM	19.2 µM and > 7.55 µM	47.3 µM and > 10 µM
C/C(=C\c1ccn(-c2ccc(N)cc2F)n1)[C@@H]1C[C@@H]2O[C@]2(C)CCC[C@H](C)[C@H](O)[C@@H](C)C(=O)C(C)(C)[C@@H](O)CC(=O)O1	123 nM	> 50 µM	34.7 nM	> 10.6 µM	17.4 nM	859	6510 nM	> 50 µM	60.6 nM	> 16.6 µM	16.6 nM	0.159 µM	40.8 nM	> 50	25.6 nM	> 50 µM	35.2 nM	0.296 µM	1.05 µM	> 50 µM
Cc1nc2sc(C(=O)Nc3cccc(Br)c3)c(N)c2cc1C(O)c1ccccc1 (centres undefined)	632 nM	15.6 µM	2400 nM	12.1 µM	395 nM	1600	4270 nM	32.4 µM	424 nM	9.21 µM	392 nM	6.23 µM	1420 nM	55.1	2890 nM	31 µM	558 nM	5.4 µM	4.61 µM	23.7 µM
Cc1nn(C)c2cc(N(C)c3ccnc(Nc4cccc(S(N)(=O)=O)c4)n3)ccc12	7170 nM	> 22.6 µM	15700 nM	> 25 µM	5760 nM	21500	4390 nM	> 25 µM	7260 nM	> 25 µM	8190 nM	> 25 µM	7150 nM	> 25	7170 nM	> 25 µM	8010 nM	> 25 µM	9 µM	> 25 µM
CC#CC(=O)N1CC[C@@H](n2c(=O)n(-c3ccc(Oc4ccccc4)cc3)c3c(N)ncnc32)C1	13800 nM	> 100 µM	42500 nM	> 100 µM	23500 nM	77400	16400 nM	68.1 µM	22500 nM	> 100 µM	25700 nM	> 100 µM	40600 nM	> 100	29100 nM	> 100 µM	25000 nM	> 100 µM	35.8 µM	> 100 µM
COc1cnc2c(c1)C(=O)c1c-2n(CCCNC(C)C)c(=O)c2cc([N+](=O)[O-])ccc12	31.4 nM	0.191 µM	109 nM	0.269 µM	33.6 nM	111	1090 nM	2.82 µM	938 nM	3.24 µM	82.4 nM	0.247 µM	46.8 nM	0.541	211 nM	3.07 µM	51.9 nM	0.204 µM	0.121 µM	0.351 µM
Nc1nc(-c2ccccc2)cc(-c2ccc(Cl)cc2)c1-c1nc2ccccc2o1	22900 nM	38.6 µM	10300 nM	25.8 µM	4420 nM	17000	1700 nM	6.83 µM	14800 nM	36.1 µM	15700 nM	30.8 µM	18700 nM	61.2	2950 nM	14.2 µM	17500 nM	32.3 µM	17 µM	32.6 µM
COc1ccc(C2CC(=O)c3c(O)c(OC)c(OC)c(OC)c3O2)cc1O (centres undefined)	430 nM	> 100 µM	999 nM	> 100 µM	26.3 nM	–	518 nM	82.4 µM	49.8 nM	> 100 µM	62.7 nM	0.749 µM	175 nM	> 57.1	64.2 nM	> 100 µM	66.6 nM	> 100 µM	14.4 µM	> 100 µM
COc1ccc(C2c3c(-c4ccccc4)nn(-c4ccccc4)c3Oc3ncn4nc(CC#N)nc4c32)cc1OC (centres undefined)	–	> 100 µM and 13.8 µM	> 100000 nM and 22600 nM	> 100 µM	30400 nM and > 100000 nM	> 100000	17600 nM and 1960 nM	–	–	59.1 µM and 6.86 µM	75400 nM and 10300 nM	> 100 µM	–	> 100	32600 nM and 12300 nM	> 100 µM and 49.1 µM	19200 nM and 2490 nM	36.9 µM and > 27.6 µM	–	> 100 µM
COc1cc(N2CCC(N3CCN(C)CC3)CC2)ccc1Nc1ncc(Cl)c(Nc2ccccc2S(=O)(=O)C(C)C)n1	650 nM	6.51 µM	1070 nM	2.39 µM	327 nM	1400	47.6 nM	0.433 µM	1350 nM	5.07 µM	2220 nM	6.87 µM	2100 nM	7.76	2160 nM	11.7 µM	1390 nM	2.74 µM	1.74 µM	3.41 µM
COc1cc(C)c(NC(=O)CN(C)C)cc1Nc1nc(Nc2cccc(F)c2C(N)=O)c2cc[nH]c2n1	3680 nM	9.95 µM	621 nM	5.09 µM	20.5 nM	875	12.4 nM	2.66 µM	3080 nM	10.2 µM	682 nM	1.86 µM	1640 nM	6.32	2210 nM	7.56 µM	3050 nM	7.07 µM	2.68 µM	9.62 µM
Oc1c(CN2CCN(c3ccccc3F)CC2)cc(Br)c2cccnc12	376 nM	9.26 µM	2870 nM	15.1 µM	392 nM	2340	896 nM	19.8 µM	1820 nM	55.5 µM	576 nM	21.2 µM	607 nM	14.5	807 nM	31.7 µM	1020 nM	5.6 µM	2.49 µM	> 100 µM
